Results published in patent US4698352A, “4-oxo-1,4-dihydronicotinic acid derivatives, salts thereof, and antibacterial agents containing the same” (Toyama Chemical Co., Ltd., priority 1982, dated 1987).
In brackets after ≈: the same amount, converted by molar mass. Like-named read-outs stand apart in the source and are kept apart here.

What was measured:
Pro. vulgaris GN76** = assay: Antibacterial activity (MIC), agar dilution; assay type: cell-based; settings: Pro. vulgaris GN76, cephalospolinase-producing, 10^6 cells per ml
Text: (§1) The amount of bacteria inoculated was 10^4 cells per plate (10^6 cells per ml).
(§2) ** Cephalospolinase-producing bacteria

E. coli GN5482** = assay: Antibacterial activity (MIC), agar dilution; assay type: cell-based; settings: E. coli GN5482, cephalospolinase-producing, 10^6 cells per ml
Text: as §1, §2

Ps. aeruginosa GN918** = assay: Antibacterial activity (MIC), agar dilution; assay type: cell-based; settings: Pseudomonas aeruginosa, Ps. aeruginosa GN918, cephalospolinase-producing, 10^6 cells per ml
Text: as §1, §2

Pro. mirabilis T-111 = assay: Antibacterial activity (MIC), agar dilution; assay type: cell-based; settings: 37° C.
Text: as §1

Kl. pneumoniae Y-41 = assay: Antibacterial activity (MIC), agar dilution; assay type: cell-based; settings: 37° C., 20 hours
Text: as §1

Ps. aeruginosa IFO3445 = assay: Antibacterial activity (MIC), agar dilution; assay type: cell-based; settings: Ps. aeruginosa IFO3445, 10^6 cells per ml, 37° C., 20 hours
Text: as §1

E. coli NIHJ JC-2 = assay: Antibacterial activity (MIC), agar dilution; assay type: cell-based; settings: E. coli NIHJ JC-2, 10^6 cells per ml, 37° C., 20 hours
Text: as §1

Pro. morganii T-216 = assay: Antibacterial activity (MIC), agar dilution; assay type: cell-based; settings: 37° C.
Text: as §1

Kl. pneumoniae Y-50 = assay: Antibacterial activity (MIC), agar dilution; assay type: cell-based; settings: 10^6 cells per ml, 37° C.
Text: as §1

St. aureus FDA209P = assay: Antibacterial activity (MIC), agar dilution; assay type: cell-based; settings: St. aureus FDA209P, 10^6 cells per ml, 37° C., 20 hours
Text: as §1

Ent. cloacae IID977 = assay: Antibacterial activity (MIC), agar dilution; assay type: cell-based; settings: Ent. cloacae IID977, 10^6 cells per ml, 37° C., 20 hours
Text: as §1

Ps. aeruginosa S-68 = assay: Antibacterial activity (MIC), agar dilution; assay type: cell-based; settings: Ps. aeruginosa S-68, 10^6 cells per ml, 37° C., 20 hours
Text: as §1

Aci. antitratus A-6 = assay: Antibacterial activity (MIC), agar dilution; assay type: cell-based; settings: Aci. antitratus A-6, 10^6 cells per ml, 37° C., 20 hours
Text: as §1

Pro. vulgaris GN3027 = assay: Antibacterial activity (MIC), agar dilution; assay type: cell-based; settings: Pro. vulgaris GN3027, 10^6 cells per ml, 37° C., 20 hours
Text: as §1

E. coli TK-111 = assay: Antibacterial activity (MIC), agar dilution; assay type: cell-based; settings: E. coli TK-111, 10^6 cells per ml, 37° C., 20 hours
Text: as §1

Ps. aeruginosa GN3379* = assay: Antibacterial activity (MIC), agar dilution; assay type: cell-based; settings: Ps. aeruginosa GN3379, penicillinase-producing, 10^6 cells per ml
Text: as §1
(§3) * Penicillinase-producing bacteria

St. aureus F-137* = assay: Antibacterial activity (MIC), agar dilution; assay type: cell-based; settings: St. aureus F-137, penicillinase-producing, 10^6 cells per ml
Text: as §1, §3

Kl. pneumoniae Y-4* = assay: Antibacterial activity (MIC), agar dilution; assay type: cell-based; settings: Kl. pneumoniae Y-4, penicillinase-producing, 10^6 cells per ml
Text: as §1, §3

E. coli TK-3* = assay: Antibacterial activity (MIC), agar dilution; assay type: cell-based; settings: E. coli TK-3, penicillinase-producing, 10^6 cells per ml
Text: as §1, §3

[1] = Acute toxicity test (intravenous LD50); settings: mouse, in vivo, mice (ICR strain, male, 18-24 g)
Text: The LD50 values of the representative compounds of this invention when administered intravenously to mice (ICR strain, male, 18-24 g) are shown in Table 2.

[2] = Morganella morganii, T216, 10^6 cells per ml, 20 hours, read-out: MIC
[3] = Proteus vulgaris, 20 h, read-out: MIC
[4] = Escherichia coli, 20 h, read-out: MIC
[5] = Klebsiella pneumoniae, Y41, 10^6 cells per ml, read-out: MIC
[6] = Pseudomonas aeruginosa, read-out: MIC
[7] = Escherichia coli, NIHJJC2, 20 h, read-out: MIC
[8] = Klebsiella pneumoniae, Y50, 20 h
[9] = Staphylococcus aureus, FDA209P, 20 h, read-out: MIC
[10] = Enterobacter cloacae, IID977, 20 h, read-out: MIC
[11] = Pseudomonas aeruginosa, S68, read-out: MIC
[12] = Proteus vulgaris, GN3027, 20 h, read-out: MIC
[13] = Escherichia coli, TK111, 20 h, read-out: MIC
[14] = Pseudomonas aeruginosa, 20 h, read-out: MIC
[15] = Staphylococcus aureus, 20 h, read-out: MIC
[16] = Klebsiella pneumoniae, 20 h, read-out: MIC

`CC(=O)Oc1ccc(-n2cc(C(=O)OCCN(C)C)c(=O)cc2-c2ccc(N(C)C)cc2)cc1` [drawing 38] showed an MIC (Pro. vulgaris GN76**) of 1.56 µg/mL (≈ 3.37 µM), an MIC (E. coli GN5482**) of no more than 0.05 µg/mL and an MIC (Ps. aeruginosa GN918**; GN918, 20 h) of 3.13 µg/mL (≈ 6.75 µM). The MIC (Pro. mirabilis T-111; 10^6 cells per ml, 20 hours) was 6.25 µg/mL (≈ 13.5 µM), the MIC (Kl. pneumoniae Y-41; 10^6 cells per ml) was 3.13 µg/mL (≈ 6.75 µM) and the MIC (Ps. aeruginosa IFO3445) was 12.5 µg/mL (≈ 27 µM). It also gave an MIC (E. coli NIHJ JC-2) of 0.39 µg/mL (≈ 0.841 µM), an MIC (Pro. morganii T-216; 10^6 cells per ml, 20 hours) of 3.13 µg/mL (≈ 6.75 µM) and an MIC (Kl. pneumoniae Y-50; 20 hours) of 0.78 µg/mL (≈ 1.68 µM). It also gave an MIC (St. aureus FDA209P) of 0.39 µg/mL (≈ 0.841 µM), an MIC (Ent. cloacae IID977) of 1.56 µg/mL (≈ 3.37 µM) and an MIC (Ps. aeruginosa S-68) of 6.25 µg/mL (≈ 13.5 µM). It also gave an MIC (Aci. antitratus A-6) of 0.39 µg/mL (≈ 0.841 µM), an MIC (Pro. vulgaris GN3027) of 0.39 µg/mL (≈ 0.841 µM) and an MIC (E. coli TK-111) of 0.2 µg/mL (≈ 0.431 µM). For the same molecule, the MIC (Ps. aeruginosa GN3379*) was 12.5 µg/mL (≈ 27 µM), the MIC (St. aureus F-137*) was 0.39 µg/mL (≈ 0.841 µM) and the MIC (Kl. pneumoniae Y-4*) was 6.25 µg/mL (≈ 13.5 µM). It also gave an MIC (E. coli TK-3*) of 1.56 µg/mL (≈ 3.37 µM).
Molecule `CC(=O)Oc1ccc(-n2cc(C(=O)OCCN(C)C)c(=O)cc2-c2ccc(N(C)C)cc2)cc1` [drawing 67] has an MIC (Pro. vulgaris GN76**) of 1.56 µg/mL (≈ 3.37 µM), an MIC (E. coli GN5482**) of no more than 0.05 µg/mL and an MIC (Ps. aeruginosa GN918**; 20 h, read-out: MIC) of 1.56 µg/mL (≈ 3.37 µM). It also gave an MIC (Pro. mirabilis T-111; 10^6 cells per ml, 20 hours) of 3.13 µg/mL (≈ 6.75 µM), an MIC (Kl. pneumoniae Y-41; 10^6 cells per ml) of 3.13 µg/mL (≈ 6.75 µM) and an MIC (Ps. aeruginosa IFO3445) of 12.5 µg/mL (≈ 27 µM). It also gave an MIC (E. coli NIHJ JC-2) of 0.2 µg/mL (≈ 0.431 µM), an MIC (Pro. morganii T-216; [2]) of 1.56 µg/mL (≈ 3.37 µM) and an MIC (Kl. pneumoniae Y-50; 20 hours) of 0.39 µg/mL (≈ 0.841 µM). The MIC (St. aureus FDA209P) was 0.2 µg/mL (≈ 0.431 µM), the MIC (Ent. cloacae IID977) was 0.78 µg/mL (≈ 1.68 µM) and the MIC (Ps. aeruginosa S-68) was 6.25 µg/mL (≈ 13.5 µM). For the same molecule, the MIC (Aci. antitratus A-6) was 0.2 µg/mL (≈ 0.431 µM), the MIC (Pro. vulgaris GN3027) was 0.2 µg/mL (≈ 0.431 µM) and the MIC (E. coli TK-111) was 0.1 µg/mL (≈ 0.216 µM). It also gave an MIC (Ps. aeruginosa GN3379*; Pseudomonas aeruginosa, GN3379, 20 h) of 6.25 µg/mL (≈ 13.5 µM), an MIC (St. aureus F-137*) of 0.2 µg/mL (≈ 0.431 µM) and an MIC (Kl. pneumoniae Y-4*) of 3.13 µg/mL (≈ 6.75 µM). For the same molecule, the MIC (E. coli TK-3*) was 0.78 µg/mL (≈ 1.68 µM).
In the case of `O=C(O)c1cn(-c2ccc(F)cc2)c(C=Cc2cccnc2)cc1=O` [drawing 205], the MIC (Pro. vulgaris GN76**; [3]) is reported as 1.56 µg/mL (≈ 4.64 µM), the MIC (E. coli GN5482**; [4]) is reported as 0.2 µg/mL (≈ 0.595 µM) and the MIC (Ps. aeruginosa GN918**; 20 h, read-out: MIC) is reported as 12.5 µg/mL (≈ 37.2 µM). It also gave an MIC (Pro. mirabilis T-111; Proteus mirabilis, T111, 10^6 cells per ml, 20 hours, read-out: MIC) of 12.5 µg/mL (≈ 37.2 µM), an MIC (Kl. pneumoniae Y-41; [5]) of 6.25 µg/mL (≈ 18.6 µM) and an MIC (Ps. aeruginosa IFO3445; [6]) of 25 µg/mL (≈ 74.3 µM). The MIC (E. coli NIHJ JC-2; [7]) was 1.56 µg/mL (≈ 4.64 µM), the MIC (Pro. morganii T-216; Morganella morganii, T216, 20 h, 10^6 cells per ml) was 6.25 µg/mL (≈ 18.6 µM) and the MIC (Kl. pneumoniae Y-50; [8]) was 0.78 µg/mL (≈ 2.32 µM). The MIC (St. aureus FDA209P; [9]) was 3.13 µg/mL (≈ 9.31 µM), the MIC (Ent. cloacae IID977; [10]) was 3.13 µg/mL (≈ 9.31 µM) and the MIC (Ps. aeruginosa S-68; [11]) was 12.5 µg/mL (≈ 37.2 µM). For the same molecule, the MIC (Aci. antitratus A-6; 20 h, read-out: MIC) was 3.13 µg/mL (≈ 9.31 µM), the MIC (Pro. vulgaris GN3027; [12]) was 0.39 µg/mL (≈ 1.16 µM) and the MIC (E. coli TK-111; [13]) was 0.78 µg/mL (≈ 2.32 µM). The MIC (Ps. aeruginosa GN3379*; [14]) was 25 µg/mL (≈ 74.3 µM), the MIC (St. aureus F-137*; [15]) was 3.13 µg/mL (≈ 9.31 µM) and the MIC (Kl. pneumoniae Y-4*; [16]) was 6.25 µg/mL (≈ 18.6 µM). For the same molecule, the MIC (E. coli TK-3*; [4]) was 3.13 µg/mL (≈ 9.31 µM).
In the case of `CN(C)c1ccc(-c2cc(=O)c(C(=O)O)cn2-c2ccc(O)cc2)cc1` [drawing 206], the MIC (Pro. vulgaris GN76**; [3]) is reported as 0.39 µg/mL (≈ 1.11 µM), the MIC (E. coli GN5482**; [4]) is reported as 0.05 µg/mL (≈ 0.143 µM) and the MIC (Ps. aeruginosa GN918**; 20 h, read-out: MIC) is reported as 1.5 µg/mL (≈ 4.28 µM). The MIC (Pro. mirabilis T-111; Proteus mirabilis, T111, 20 h, 10^6 cells per ml) was 1.56 µg/mL (≈ 4.45 µM), the MIC (Kl. pneumoniae Y-41; [5]) was 0.78 µg/mL (≈ 2.23 µM) and the MIC (Ps. aeruginosa IFO3445; [6]) was 3.13 µg/mL (≈ 8.93 µM). It also gave an MIC (E. coli NIHJ JC-2; [7]) of 0.2 µg/mL (≈ 0.571 µM), an MIC (Pro. morganii T-216; [2]) of 0.78 µg/mL (≈ 2.23 µM) and an MIC (Kl. pneumoniae Y-50; [8]) of 0.2 µg/mL (≈ 0.571 µM). The MIC (St. aureus FDA209P; [9]) was 0.2 µg/mL (≈ 0.571 µM), the MIC (Ent. cloacae IID977; [10]) was 0.39 µg/mL (≈ 1.11 µM) and the MIC (Ps. aeruginosa S-68; [11]) was 3.13 µg/mL (≈ 8.93 µM). For the same molecule, the MIC (Aci. antitratus A-6; 20 h, read-out: MIC) was 0.39 µg/mL (≈ 1.11 µM), the MIC (Pro. vulgaris GN3027; [12]) was 0.1 µg/mL (≈ 0.285 µM) and the MIC (E. coli TK-111; [13]) was 0.05 µg/mL (≈ 0.143 µM). For the same molecule, the MIC (Ps. aeruginosa GN3379*; [14]) was 3.13 µg/mL (≈ 8.93 µM), the MIC (St. aureus F-137*; [15]) was 0.1 µg/mL (≈ 0.285 µM) and the MIC (Kl. pneumoniae Y-4*; [16]) was 1.56 µg/mL (≈ 4.45 µM). For the same molecule, the MIC (E. coli TK-3*; [4]) was 0.39 µg/mL (≈ 1.11 µM).
Work on `O=C(O)c1cn(-c2ccc(F)cc2)c(C=Cc2cccnc2)cc1=O` [drawing 215] yielded an LD50 [1] greater than 200 mg/kg.
In the case of `CN(C)c1ccc(-c2cc(=O)c(C(=O)O)cn2-c2ccc(O)cc2)cc1` [drawing 217], the LD50 [1] is reported as greater than 200 mg/kg.
With `O=C(O)c1cn(-c2ccc(F)cc2)c(-c2ccc(NCCO)cc2)cc1=O` [drawing 219] the LD50 [1] was greater than 200 mg/kg.
With `Cc1cc(O)ccc1-n1cc(C(=O)O)c(=O)cc1C1CCCCC1` [drawing 221] the LD50 [1] was greater than 200 mg/kg.
